Bridge positions count the residues as written; N and C are the ends. Square brackets hold non-standard residues; d marks the D form. Peptide text beside a SMILES is read from it. * marks the point of attachment. hPhe(3-Cl-4-CF3) = N[C@@H](CCc1ccc(C(F)(F)F)c(Cl)c1)C(=O)O; NMeCha = CN[C@@H](CC1CCCCC1)C(=O)O; NMeGly(cPr) = CN[C@H](C(=O)O)C1CC1; NMeCba = CN[C@@H](CC1CCC1)C(=O)O; NMeD = CN[C@@H](CC(=O)O)C(=O)O; NMeL = CN[C@@H](CC(C)C)C(=O)O; NMeNle = CCCC[C@H](NC)C(=O)O; NMeNva = CCC[C@H](NC)C(=O)O; NMeV = CN[C@H](C(=O)O)C(C)C; d(β3hA) = C[C@@H](N)CC(=O)O; NMeAbu = CC[C@H](NC)C(=O)O; NMeA = CN[C@@H](C)C(=O)O; Piperidide = C1CCN(*)CC1; Ac5c = NC1(C(=O)O)CCCC1; Aze = O=C(O)[C@@H]1CCN1; Sar = CNCC(=O)O
Target: protein-protein interaction between Kras and SOS1 (biotin-tagged human Kras loaded with GDP, His-tagged human SOS1) (Homo sapiens (Human), UniProt P01116, G12D)
Assay: Protein-protein interaction inhibition between Kras and SOS1 (KrasG12D-SOS PPI) using AlphaScreen;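 note: kras produced in E. coli, Ni-coupled donor beads and streptavidin acceptor beads, excitation 680 nm with emission detected at 520–620 nm via singlet oxygen transfer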
Format: biochemical
Conditions: AlphaScreen; biotin-tagged human Kras loaded with GDP, His-tagged human SOS1; read-out: KRAS G12D-SOS PPI IC50

SMILES	IC50 [nM]
CC[C@H](C)[C@@H]1NC(=O)[C@H](CC(C)C)N(C)C(=O)C[C@@H](C)NC(=O)[C@H](C(C)C)N(C)C(=O)C2(CCCC2)NC(=O)[C@@H]2CCCN2C(=O)[C@H](CCc2ccc(C(F)(F)F)c(Cl)c2)NC(=O)CN(C)C(=O)[C@H](CC2CCCCC2)N(C)C(=O)[C@@H]2CCN2C(=O)[C@H](C2CC2)N(C)C1=O [Compound 1586] (cyclo([Ac5c][NMeV][d(β3hA)][NMeL]I[NMeGly(cPr)][Aze][NMeCha][Sar][hPhe(3-Cl-4-CF3)]P))	59
CC[C@H](C)[C@@H]1NC(=O)[C@H](CC(C)C)N(C)C(=O)C[C@@H](C(=O)N2CCCCC2)N(C)C(=O)[C@H](C(C)C)N(C)C(=O)C2(CCCC2)NC(=O)[C@@H]2CCCN2C(=O)[C@H](CCc2ccc(C(F)(F)F)c(Cl)c2)NC(=O)CN(C)C(=O)[C@H](CC2CCCCC2)N(C)C(=O)[C@@H]2CCN2C(=O)[C@H](C(C)C)N(C)C1=O [Compound 1592] ([NMeL]I[NMeV][Aze][NMeCha][Sar][hPhe(3-Cl-4-CF3)]P[Ac5c][NMeV][NMeD]-Piperidide; lactam N-11)	210
CC[C@H](C)[C@@H]1NC(=O)[C@H](CC(C)C)N(C)C(=O)C[C@@H](C)NC(=O)[C@H](C(C)C)N(C)C(=O)C2(CCCC2)NC(=O)[C@@H]2CCCN2C(=O)[C@H](CCc2ccc(C(F)(F)F)c(Cl)c2)NC(=O)CN(C)C(=O)[C@H](CC2CCCCC2)N(C)C(=O)[C@@H]2CCN2C(=O)[C@H](CC)N(C)C1=O [Compound 1593] (cyclo([Ac5c][NMeV][d(β3hA)][NMeL]I[NMeAbu][Aze][NMeCha][Sar][hPhe(3-Cl-4-CF3)]P))	140
CCCC[C@H]1C(=O)N2CC[C@H]2C(=O)N(C)[C@@H](CC2CCCCC2)C(=O)N(C)CC(=O)N[C@@H](CCc2ccc(C(F)(F)F)c(Cl)c2)C(=O)N2CCC[C@H]2C(=O)NC2(CCCC2)C(=O)N(C)[C@@H](C(C)C)C(=O)N(C)[C@H](C(=O)N2CCCCC2)CC(=O)N(C)[C@@H](CC(C)C)C(=O)N[C@@H]([C@@H](C)CC)C(=O)N1C [Compound 1596] ([NMeL]I[NMeNle][Aze][NMeCha][Sar][hPhe(3-Cl-4-CF3)]P[Ac5c][NMeV][NMeD]-Piperidide; lactam N-11)	23
CCC[C@H]1C(=O)N2CC[C@H]2C(=O)N(C)[C@@H](CC2CCCCC2)C(=O)N(C)CC(=O)N[C@@H](CCc2ccc(C(F)(F)F)c(Cl)c2)C(=O)N2CCC[C@H]2C(=O)NC2(CCCC2)C(=O)N(C)[C@@H](C(C)C)C(=O)N(C)[C@H](C(=O)N2CCCCC2)CC(=O)N(C)[C@@H](CC(C)C)C(=O)N[C@@H]([C@@H](C)CC)C(=O)N1C [Compound 1601] ([NMeL]I[NMeNva][Aze][NMeCha][Sar][hPhe(3-Cl-4-CF3)]P[Ac5c][NMeV][NMeD]-Piperidide; lactam N-11)	22
CC[C@H](C)[C@@H]1NC(=O)[C@H](CC(C)C)N(C)C(=O)C[C@@H](C(=O)N2CCCCC2)N(C)C(=O)[C@H](C(C)C)N(C)C(=O)C2(CCCC2)NC(=O)[C@@H]2CCCN2C(=O)[C@H](CCc2ccc(C(F)(F)F)c(Cl)c2)NC(=O)CN(C)C(=O)[C@H](CC2CCCCC2)N(C)C(=O)[C@@H]2CCN2C(=O)[C@H](CC2CCC2)N(C)C1=O [Compound 1603] ([NMeL]I[NMeCba][Aze][NMeCha][Sar][hPhe(3-Cl-4-CF3)]P[Ac5c][NMeV][NMeD]-Piperidide; lactam N-11)	94
CCCC[C@H]1C(=O)N[C@@H]([C@@H](C)CC)C(=O)N(C)[C@@H](C)C(=O)N2CC[C@H]2C(=O)N(C)[C@@H](CC2CCCCC2)C(=O)N(C)CC(=O)N[C@@H](CCc2ccc(C(F)(F)F)c(Cl)c2)C(=O)N2CCC[C@H]2C(=O)NC2(CCCC2)C(=O)N(C)[C@@H](C(C)C)C(=O)N(C)[C@H](C(=O)N2CCCCC2)CC(=O)N1C [Compound 1616] ([NMeNle]I[NMeA][Aze][NMeCha][Sar][hPhe(3-Cl-4-CF3)]P[Ac5c][NMeV][NMeD]-Piperidide; lactam N-11)	12

From patent publication US20240148821A1, “PHARMACEUTICAL USE OF CYCLIC PEPTIDE COMPOUND” (CHUGAI SEIYAKU KABUSHIKI KAISHA, priority 2021, published 2024)
